Source: patent US20230381170A1, “METHOD FOR TREATING ALS/FTD THROUGH DEGRADATION OF RNA REPEAT EXPANSION” (University of Florida Research Foundation, Incorporated, priority 2020, published 2023)
Where two headings read alike, the source gives them in different places.

Key:
[1] = test system: Poly(GP); experiment: Poly(GP) sandwich immunoassay in brain of +/+PWR500 mice; type: in vivo, mouse
Procedure: Therapeutic Efficacy in a c9ALS/FD mouse model. All animal studies were completed as approved by the Scripps Florida Institutional Animal Care and Use Committee. A total of 24 mice (12+/+PWR500 [7 Male and 5 Female] and 12 WT [6 Male and 6 Female]) mice, age- and gender-matched and ranging in age from 18-22 weeks old were used in therapeutic efficacy studies (Table 6). Mice were anesthetized by intraperitoneal (i.p.) injection of 10 mg/mL Ketamine:1 mg/mL Xylazine solution. Intracerebroventricular (ICV) stereotactic injections of 10 μL of 7 (33 nmol) were administered into the right ventricle using the following coordinates: 0.2 mm posterior and 1.0 mm lateral to the right from the bregma and 3 mm deep. Mice were treated with 7 or vehicle consisting of 1% DMSO in Saline. Three weeks post-treatment, mice were euthanized, and tissue was harvested for study.
Measuring Poly(GP) by MSD. Postmortem brain tissue was harvested and sliced sagittal at the midline. The left hemisphere was frozen for protein and RNA analysis. The left hemisphere of each brain was homogenized in 300 μL of ice-cold Tris-EDTA buffer with 2× protease inhibitors. […] Protein concentrations were measured by BCA assay (Pierce Biotechnology) and Poly(GP) was measured as described above. Statistical analysis was measured using an unpaired t-test with Welch's correction.

[2] = target: T1, Human Topoisomerase II (Homo sapiens, UniProt P11388); experiment: Topoisomerase assay; type: biochemical
T1 construct: purchased TopoGen
Procedure: Topoisomerase Assay. Topoisomerase inhibition was assessed in vitro using the TopoGen Human Topoisomerase II Assay Kit per manufacturer's recommended protocol. Samples were run on a 1% agarose gel post-stained with ethidium bromide. Topoisomerase inhibition was quantified as a percentage of linearized DNA compared to the positive control compound VP-16 supplied.

[3] = test system: r(G2C2)10; experiment: Biolayer interferometry (BLI) binding
Procedure: (§1) Biolayer Interferometry (BLI). BLI studies were performed similarly as previously described (12) using an Octet RED96. Briefly, 5′-biotinylated nucleic acids were folded by heating at 95° C. for 4 min in 10 mM sodium phosphate buffer, pH 7, followed by slowly cooling to room temperature. Then, to the folded RNA were added the following components: 1.386 mL 1×DPBS (21-031-CV, Corning), 180 μL freshly prepared 1% (w/v) BSA, 36 μL 1% (v/v) Tween-20, and 18 μL DMSO (1% final concentration) in a final volume of 1.8 mL. The final concentration of RNA was 0.5 μM. Separately, serial dilutions of the compound of interest were prepared in the same buffer.
(§2) Streptavidin sensors (SA, #18-5019, ForteBio) were equilibrated with buffer for 10 min at room temperature using 96-well black microplate (Greiner; Catalog #: 655209). The following time intervals were used during data acquisition (30° C. with shaking at 1000 rpm): baseline step, 180 s; loading of RNA, 900 s; washing, 180 s; association of compound, 1800 s; and dissociation of compound, 1800 s. The resulting curves were analyzed and processed using Octet Data Analysis software version 9.1 by subtracting the response of the sensors recorded upon incubation with solutions containing compound and no RNA (parallel reference). The data were then fitted assuming reversible binding using the entire time interval for association and dissociation using either 1:1 or the 2:1 heterogeneous binding curve fitting model. The reported Kd,n, kon,n and koff,n values represent the average of two independent experiments.

[4] = test system: d(G4C2)8; experiment: Biolayer interferometry (BLI) binding; conditions: for Kd: BLI
Procedure: as §1, §2

[5] = test system: r(G2C4)8; experiment: Biolayer interferometry (BLI) binding
Procedure: as §1, §2

[6] = test system: r(G4C2)4; experiment: 1D NMR imino proton monitoring; type: binding
Procedure: (§3) Preparation of MNR Samples. RNA constructs were purchased from GE Dharmacon, Inc. After deprotection and desalting, RNAs were dissolved in buffer comprising 10 mM sodium phosphates and 100 mM LiCl at pH 7.0 and reannealed by heating to 95° C. for 4 min followed by cooling to room temperature. Solvent consisted of H2O, to which 20 μL of D2O was added to provide a lock signal. Final concentrations of RNA were 100 μM for 1D NMR spectroscopy and 400 μM of RNA for 2D NMR spectroscopy. Dimeric derivatives 2 and 3 were dissolved in DMSO-d6 to 10 mM concentrations.
(§4) NMR Spectroscopy. NMR spectra were acquired on samples in Shigemi tubes using Bruker Avance 600 and 700 MHz spectrometers equipped with cryoprobes. 1D spectra were recorded on free form RNA, to which 2 and 3 was added to final compound/RNA molar ratios of 0.5 and 1.0. 2D spectra were acquired with 400 ms mixing times on samples containing 3 at 1.0 compound/RNA molar ratio. In 1D and 2D NMR spectra, WATERGATE and excitation pulse sequences were used to suppress the water signal, respectively (53-55). Proton chemical shifts were referenced internally to 4,4-dimethyl-4-silapentane-1-sulfonic acid (DSS, 0.1 mM). 1D spectra were processed using MestreNOVA software. 2D spectra were processed using NMRPipe and assigned using SPARKY (56).

[7] = test system: r(G2C2)4; experiment: 1D NMR imino proton monitoring; type: binding; conditions: hairpin with fully paired stem
Procedure: as §3, §4

T1 sequence (P11388 whole entry): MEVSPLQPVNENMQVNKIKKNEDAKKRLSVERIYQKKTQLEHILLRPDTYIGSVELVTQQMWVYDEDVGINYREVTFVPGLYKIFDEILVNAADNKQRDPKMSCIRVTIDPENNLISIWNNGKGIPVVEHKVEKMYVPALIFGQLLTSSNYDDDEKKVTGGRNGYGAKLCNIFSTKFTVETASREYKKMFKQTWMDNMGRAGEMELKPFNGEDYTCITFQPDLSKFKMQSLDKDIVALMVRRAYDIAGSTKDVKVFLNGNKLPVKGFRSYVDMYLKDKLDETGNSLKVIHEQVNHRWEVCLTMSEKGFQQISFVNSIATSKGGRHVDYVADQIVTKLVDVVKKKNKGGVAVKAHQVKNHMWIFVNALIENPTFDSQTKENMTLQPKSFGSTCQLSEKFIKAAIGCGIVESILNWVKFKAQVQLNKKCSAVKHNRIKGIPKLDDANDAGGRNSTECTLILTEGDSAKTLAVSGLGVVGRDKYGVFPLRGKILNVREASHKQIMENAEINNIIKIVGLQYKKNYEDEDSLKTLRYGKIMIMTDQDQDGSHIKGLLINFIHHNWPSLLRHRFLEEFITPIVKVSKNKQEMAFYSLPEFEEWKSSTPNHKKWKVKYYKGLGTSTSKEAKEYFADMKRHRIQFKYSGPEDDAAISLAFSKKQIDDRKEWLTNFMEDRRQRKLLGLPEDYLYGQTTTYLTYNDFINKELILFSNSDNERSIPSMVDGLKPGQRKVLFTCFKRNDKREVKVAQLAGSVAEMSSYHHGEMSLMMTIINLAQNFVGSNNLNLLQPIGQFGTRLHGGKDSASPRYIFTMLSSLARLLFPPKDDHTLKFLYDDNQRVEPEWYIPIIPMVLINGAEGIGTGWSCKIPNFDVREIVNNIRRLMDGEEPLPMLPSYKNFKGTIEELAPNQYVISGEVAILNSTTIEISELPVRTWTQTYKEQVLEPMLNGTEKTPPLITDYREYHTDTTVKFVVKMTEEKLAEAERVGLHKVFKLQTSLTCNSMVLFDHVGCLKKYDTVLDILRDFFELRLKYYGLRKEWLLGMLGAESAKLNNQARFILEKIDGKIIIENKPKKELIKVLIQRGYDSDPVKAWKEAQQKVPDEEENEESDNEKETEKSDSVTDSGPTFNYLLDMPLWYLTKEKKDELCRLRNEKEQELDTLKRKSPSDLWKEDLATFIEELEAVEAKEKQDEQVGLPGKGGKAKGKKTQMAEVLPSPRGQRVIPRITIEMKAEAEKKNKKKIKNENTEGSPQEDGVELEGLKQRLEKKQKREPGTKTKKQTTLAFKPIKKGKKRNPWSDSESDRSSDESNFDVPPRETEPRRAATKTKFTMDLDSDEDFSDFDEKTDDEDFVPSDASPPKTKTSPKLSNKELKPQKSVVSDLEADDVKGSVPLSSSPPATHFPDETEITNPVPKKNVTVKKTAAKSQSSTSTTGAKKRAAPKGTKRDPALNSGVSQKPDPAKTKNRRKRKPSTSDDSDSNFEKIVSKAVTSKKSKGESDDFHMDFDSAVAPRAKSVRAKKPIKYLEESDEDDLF

| topoisomerase activity in vitro [2] | selective for r(G4C2)8 over r(G2C2)10 [3] [fold] | Kd ([3]; BLI, read-out: Kd, 1) [nM] | selective for r(G4C2)8 over d(G4C2)8 [4] [fold] | Kd ([4]; read-out: Kd, 1) [nM] | Kd ([4]; read-out: Kd, 2) [nM] | selective for r(G4C2)8 over r(G2C4)8 [5] [fold] | Kd ([5]; BLI, read-out: Kd, 1) [nM] | SMILES | reduction of Poly(GP) ([1]; 33 nmol ICV, three weeks, brain) [%] | actin protein expression (control) ([1]; +/+PWR500 or WT mice) | complex formation, imino proton region 1D NMR [6] | changes in 1D NMR spectrum upon addition of compound [7] |
| --- | --- | --- | --- | --- | --- | --- | --- | --- | --- | --- | --- | --- |
| – | – | – | – | – | – | – | – | CCOC(=O)C1=C(Nc2ccccc2)S/C(=C\c2ccc(OCCOCCOCCOCCNC(=O)CCC(=O)N(CCOCCOCCOc3ccc4[nH]c5c(C)c6ccncc6c(C)c5c4c3)CCOCCOCCOc3ccc4[nH]c5c(C)c6ccncc6c(C)c5c4c3)c(O)c2)C1=O [Compound 7] | 74±24 | no decrease | – | – |
| did not inhibit | ~200 | 800 | ~225 | 900 | 3600 | ~10 | 400 | Cc1c2ccncc2c(C)c2c1[nH]c1ccc(OCCOCCOCCNCCOCCOCCOc3ccc4[nH]c5c(C)c6ccncc6c(C)c5c4c3)cc12 [Compound 3] | – | – | verified | no changes were observed |
